# Measurements as given in ChEMBL document CHEMBL1146264, “Estrogen receptor beta ligands: design and synthesis of new 2-phenyl-isoindole-1,3-diones” (Bioorg Med Chem Lett, 2007).
# Tests used:
# Estrogen receptor beta = Estrogen receptor beta (Homo sapiens, UniProt Q92731)
# Description: Inhibition of human LBD of ERbeta
# Estrogen receptor = molecular target: T1, Estrogen receptor (Homo sapiens, UniProt P03372)
# T1 sequence (P03372 whole entry): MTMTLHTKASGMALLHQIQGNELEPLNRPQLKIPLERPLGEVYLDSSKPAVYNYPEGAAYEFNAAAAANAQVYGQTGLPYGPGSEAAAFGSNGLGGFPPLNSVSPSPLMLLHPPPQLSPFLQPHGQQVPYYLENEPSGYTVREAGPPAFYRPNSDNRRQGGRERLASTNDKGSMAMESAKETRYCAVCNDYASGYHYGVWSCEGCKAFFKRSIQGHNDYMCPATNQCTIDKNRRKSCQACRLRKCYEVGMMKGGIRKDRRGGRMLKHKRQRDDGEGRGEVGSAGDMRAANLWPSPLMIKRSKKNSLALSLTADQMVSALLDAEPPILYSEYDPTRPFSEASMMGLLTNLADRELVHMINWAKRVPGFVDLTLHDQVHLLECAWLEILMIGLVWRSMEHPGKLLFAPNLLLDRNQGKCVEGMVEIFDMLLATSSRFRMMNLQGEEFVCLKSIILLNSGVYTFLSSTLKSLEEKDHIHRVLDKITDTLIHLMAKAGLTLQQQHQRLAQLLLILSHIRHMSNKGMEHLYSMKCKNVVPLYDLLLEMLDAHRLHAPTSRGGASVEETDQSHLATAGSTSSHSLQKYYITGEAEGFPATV
# Description: Inhibition of human LBD of ERalpha
# Homo sapiens = species: Homo sapiens; experiment: Selectivity for human LBD of ERbeta over human LBD of ERalpha
# Chain of Estrogen receptor beta (Q92731 whole entry): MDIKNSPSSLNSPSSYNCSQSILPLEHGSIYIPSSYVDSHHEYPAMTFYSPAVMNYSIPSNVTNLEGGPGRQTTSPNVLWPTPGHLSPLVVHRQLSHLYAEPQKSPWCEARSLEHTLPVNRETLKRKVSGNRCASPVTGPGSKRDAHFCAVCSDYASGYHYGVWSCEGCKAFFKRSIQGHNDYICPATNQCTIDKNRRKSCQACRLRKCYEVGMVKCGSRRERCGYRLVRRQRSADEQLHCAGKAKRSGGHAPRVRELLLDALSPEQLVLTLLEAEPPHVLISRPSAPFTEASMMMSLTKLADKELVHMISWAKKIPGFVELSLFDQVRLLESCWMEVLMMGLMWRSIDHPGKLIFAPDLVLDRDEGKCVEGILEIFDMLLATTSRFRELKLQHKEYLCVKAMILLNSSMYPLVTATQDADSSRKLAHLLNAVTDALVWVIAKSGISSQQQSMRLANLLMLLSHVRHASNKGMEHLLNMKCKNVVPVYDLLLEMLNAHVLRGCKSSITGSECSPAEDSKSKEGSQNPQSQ
SMILES,IC50 (Estrogen receptor beta),IC50 (Estrogen receptor),Ratio IC50 (Homo sapiens)
O=C1c2ccc(O)cc2C(=O)N1c1cccc(O)c1,> 5 µM,2.9 µM,–
O=C1c2ccccc2C(=O)N1c1ccc(O)cc1,> 10 µM,> 10 µM,–
O=C1c2ccc(O)cc2C(=O)N1c1cc(O)cc(O)c1,> 5 µM,> 5 µM,–
O=C1c2ccc(O)cc2C(=O)N1[C@H]1CC[C@H](O)CC1,> 5 µM,> 5 µM,–
O=C1c2cc(O)cc(Br)c2C(=O)N1c1ccc(O)cc1,1.62 µM,0.036 µM,45
O=C1c2ccc(O)cc2C(=O)N1c1ccc(O)cc1F,0.339 µM,0.053 µM,6
O=C1c2ccc(O)cc2C(=O)N1c1ccccc1,> 5 µM,2.7 µM,–
O=C1c2ccc(O)cc2C(=O)N1c1ccc(O)cc1[N+](=O)[O-],0.092 µM,0.021 µM,4
O=C1c2ccc(O)cc2C(=O)N1c1cccc2c(O)cccc12,2.81 µM,0.802 µM,4
COc1ccc(N2C(=O)c3ccc(O)cc3C2=O)c([N+](=O)[O-])c1,> 5 µM,> 5 µM,–
COc1ccc(N2C(=O)c3ccc(O)cc3C2=O)cc1,> 5 µM,3.3 µM,–
COc1cc(Br)c2c(c1)C(=O)N(c1ccc(O)cc1)C2=O,> 5 µM,> 5 µM,–
Cc1cc(O)ccc1N1C(=O)c2ccc(O)cc2C1=O,2.81 µM,0.802 µM,4
O=C1c2ccc(O)cc2C(=O)N1c1ccc(O)cc1,1.98 µM,0.084 µM,24
O=C1c2ccc(O)cc2C(=O)N1c1ccc(O)c2ccccc12,0.56 µM,2.64 µM,0.2
COc1ccc(N2C(=O)c3ccc(O)cc3C2=O)c(OC)c1,> 5 µM,2.47 µM,–
